Patent US20120231141A1, “BITTERNESS-IMPROVING AGENT FOR BITTER FOOD AND DRINK AND ASTRINGENCY-IMPROVING AGENT FOR ASTRINGENT FOOD AND DRINK” (priority 2009, published 2012)

Key:
[1] = Bitterness evaluation of carbonated water (flavor comparison by 10 panelists); type: in vivo; details: for A: the number of panelists who felt no difference from sedanenolide-free / B: the number of panelists who felt some reduction in bitterness / Flavor judgment: the number of panelists who judged it as most proper bitterness / N: the number of panelists who hardly felt bitterness: 10 panelists
Experimental: Sedanenolide was added as a bitterness-improving agent (masking agent for bitterness) of the present invention to sufficiently deaerated pure water at the concentrations shown in the following Table 4, and then carbon dioxide gas was sealed in each bottle at a pressure of 294 KPa to obtain carbonated water of the present invention.

[2] = Astringency evaluation of green tea drink (flavor comparison by 10 panelists); type: in vivo; details: for A: the number of panelists who felt no difference from sedanenolide-free / B: the number of panelists who felt some reduction in astringency / Flavor judgment: the number of panelists who judged it as most proper astringency / N: the number of panelists who hardly felt astringency: 10 panelists
Experimental: Five thousand grams of hot water (containing 0.03% of sodium ascorbate) of 95° C. was added to 100 g of domestic green tea (second picking tea), followed by extraction for 5 min while sometimes stirring. Subsequently, solid-liquid separation with flannel filter was performed to obtain 4500 g of an extract (Bx 0.7°). This extract was adjusted to Bx 0.5° with deionized water to obtain green tea extract having strong astringency. Sedanenolide was added as a taste-improving agent (masking agent for astringency) of the present invention to the resulting extract at the concentrations shown in the following Table 4 to obtain green tea drinks.

[3] = sedanenolide 0.01 ppb in carbonated water
[4] = sedanenolide 0.01 ppm in carbonated water
[5] = sedanenolide 0.1 ppb in carbonated water
[6] = sedanenolide 0.1 ppm in carbonated water
[7] = sedanenolide 1 ppb in carbonated water
[8] = sedanenolide 1 ppm in carbonated water
[9] = sedanenolide 1 ppt in carbonated water
[10] = sedanenolide 10 ppm in carbonated water
[11] = sedanenolide 0.01 ppb in green tea drink having strong astringency
[12] = sedanenolide 0.01 ppm in green tea drink having strong astringency
[13] = sedanenolide 0.1 ppb in green tea drink having strong astringency
[14] = sedanenolide 0.1 ppm in green tea drink having strong astringency
[15] = sedanenolide 1 ppb in green tea drink having strong astringency
[16] = sedanenolide 1 ppm in green tea drink having strong astringency
[17] = sedanenolide 1 ppt in green tea drink having strong astringency
[18] = sedanenolide 10 ppm in green tea drink having strong astringency

Question: Which “overall result of bitterness masking” value ([1]; amount of sedanenolide about 0.1 ppb to 1 ppm, carbonated water) does the source give for `CCCC[C@@H]1OC(=O)C2=C1CCC=C2` [sedanenolide] here?
Answer: The value was “particularly good results were obtained”.

Question: And the “bitterness of carbonated water (judgment)” value ([1]; carbonated water containing 0.01 ppb to 10 ppm of sedanenolide)?
Answer: The value was “masked”.

Question: What about the “A: the number of panelists who felt no difference from sedanenolide-free” value [1, 3] of the same compound?
Answer: The value was 7.

Question: What about the “B: the number of panelists who felt some reduction in bitterness” value [1, 3] of the same compound?
Answer: Its value is 3.

Question: And the “Flavor judgment: the number of panelists who judged it as most proper bitterness” value (from here on “Flavor judgment … as most proper bitterness”) [1, 3]?
Answer: Its value is 0.

Question: What about the “N: the number of panelists who hardly felt bitterness” value [1, 3] of the same compound?
Answer: The value was 0.

Question: What about the “reduction in bitterness at low concentration” value ([1]; sedanenolide 0.01 ppb, carbonated water) of the same compound?
Answer: Its value is “some panelists felt some reduction in bitterness”.

Question: What about the “A: the number of panelists who felt no difference from sedanenolide-free” value [1, 4] of the same compound?
Answer: The value was 2.

Question: What about the “B: the number of panelists who felt some reduction in bitterness” value [1, 4] of the same compound?
Answer: Its value is 2.

Question: And the “Flavor judgment … as most proper bitterness” value [1, 4]?
Answer: Its value is 1.

Question: And the “N: the number of panelists who hardly felt bitterness” value [1, 4]?
Answer: Its value is 6.

Question: What about the “A: the number of panelists who felt no difference from sedanenolide-free” value [1, 5] of the same compound?
Answer: Its value is 5.

Question: And the “B: the number of panelists who felt some reduction in bitterness” value [1, 5]?
Answer: The value was 5.

Question: What about the “Flavor judgment … as most proper bitterness” value [1, 5] of the same compound?
Answer: The value was 0.

Question: And the “N: the number of panelists who hardly felt bitterness” value [1, 5]?
Answer: The value was 0.

Question: What about the “A: the number of panelists who felt no difference from sedanenolide-free” value [1, 6] of the same compound?
Answer: Its value is 0.

Question: And the “B: the number of panelists who felt some reduction in bitterness” value [1, 6]?
Answer: Its value is 3.

Question: And the “Flavor judgment … as most proper bitterness” value [1, 6]?
Answer: The value was 4.

Question: And the “N: the number of panelists who hardly felt bitterness” value [1, 6]?
Answer: Its value is 7.

Question: What about the “A: the number of panelists who felt no difference from sedanenolide-free” value [1, 7] of the same compound?
Answer: Its value is 4.

Question: And the “B: the number of panelists who felt some reduction in bitterness” value [1, 7]?
Answer: The value was 6.

Question: What about the “Flavor judgment … as most proper bitterness” value [1, 7] of the same compound?
Answer: The value was 0.

Question: And the “N: the number of panelists who hardly felt bitterness” value [1, 7]?
Answer: Its value is 0.

Question: And the “A: the number of panelists who felt no difference from sedanenolide-free” value [1, 8]?
Answer: Its value is 0.

Question: And the “B: the number of panelists who felt some reduction in bitterness” value [1, 8]?
Answer: Its value is 3.

Question: And the “Flavor judgment … as most proper bitterness” value [1, 8]?
Answer: The value was 5.

Question: And the “N: the number of panelists who hardly felt bitterness” value [1, 8]?
Answer: Its value is 7.

Question: And the “A: the number of panelists who felt no difference from sedanenolide-free” value [1, 9]?
Answer: The value was 10.

Question: And the “B: the number of panelists who felt some reduction in bitterness” value [1, 9]?
Answer: Its value is 0.

Question: And the “Flavor judgment … as most proper bitterness” value [1, 9]?
Answer: The value was 0.

Question: What about the “N: the number of panelists who hardly felt bitterness” value [1, 9] of the same compound?
Answer: The value was 0.

Question: And the “A: the number of panelists who felt no difference from sedanenolide-free” value [1, 10]?
Answer: The value was 0.

Question: What about the “B: the number of panelists who felt some reduction in bitterness” value [1, 10] of the same compound?
Answer: The value was 2.

Question: And the “Flavor judgment … as most proper bitterness” value [1, 10]?
Answer: The value was 0.

Question: And the “N: the number of panelists who hardly felt bitterness” value [1, 10]?
Answer: Its value is 8.

Question: And the “overall result of astringency masking” value ([2]; amount of sedanenolide about 0.1 ppb to 1 ppm, green tea drink)?
Answer: The value was “particularly good results were obtained”.

Question: And the “astringency of green tea drink (judgment)” value ([2]; green tea drink containing 0.01 ppb to 10 ppm of sedanenolide)?
Answer: The value was “masked”.

Question: What about the “A: the number of panelists who felt no difference from sedanenolide-free” value [2, 11] of the same compound?
Answer: The value was 8.

Question: And the “B: the number of panelists who felt some reduction in astringency” value [2, 11]?
Answer: Its value is 2.

Question: What about the “Flavor judgment: the number of panelists who judged it as most proper astringency” value (“Flavor judgment … as most proper astringency” below) [2, 11] of the same compound?
Answer: Its value is 0.

Question: And the “N: the number of panelists who hardly felt astringency” value [2, 11]?
Answer: The value was 0.

Question: What about the “reduction in bitterness at low concentration” value ([2]; sedanenolide 0.01 ppb, green tea drink having strong astringency) of the same compound?
Answer: Its value is “some panelists felt some reduction in bitterness”.

Question: And the “A: the number of panelists who felt no difference from sedanenolide-free” value [2, 12]?
Answer: Its value is 3.

Question: And the “B: the number of panelists who felt some reduction in astringency” value [2, 12]?
Answer: The value was 6.

Question: And the “Flavor judgment … as most proper astringency” value [2, 12]?
Answer: Its value is 2.

Question: And the “N: the number of panelists who hardly felt astringency” value [2, 12]?
Answer: The value was 1.

Question: What about the “A: the number of panelists who felt no difference from sedanenolide-free” value [2, 13] of the same compound?
Answer: The value was 6.

Question: What about the “B: the number of panelists who felt some reduction in astringency” value [2, 13] of the same compound?
Answer: The value was 3.

Question: What about the “Flavor judgment … as most proper astringency” value [2, 13] of the same compound?
Answer: Its value is 0.

Question: What about the “N: the number of panelists who hardly felt astringency” value [2, 13] of the same compound?
Answer: Its value is 1.

Question: What about the “A: the number of panelists who felt no difference from sedanenolide-free” value [2, 14] of the same compound?
Answer: Its value is 0.

Question: And the “B: the number of panelists who felt some reduction in astringency” value [2, 14]?
Answer: Its value is 3.

Question: What about the “Flavor judgment … as most proper astringency” value [2, 14] of the same compound?
Answer: The value was 5.

Question: And the “N: the number of panelists who hardly felt astringency” value [2, 14]?
Answer: Its value is 7.

Question: And the “A: the number of panelists who felt no difference from sedanenolide-free” value [2, 15]?
Answer: The value was 5.

Question: And the “B: the number of panelists who felt some reduction in astringency” value [2, 15]?
Answer: Its value is 5.

Question: What about the “Flavor judgment … as most proper astringency” value [2, 15] of the same compound?
Answer: Its value is 0.

Question: And the “N: the number of panelists who hardly felt astringency” value [2, 15]?
Answer: The value was 0.

Question: What about the “A: the number of panelists who felt no difference from sedanenolide-free” value [2, 16] of the same compound?
Answer: Its value is 0.

Question: And the “B: the number of panelists who felt some reduction in astringency” value [2, 16]?
Answer: The value was 3.

Question: What about the “Flavor judgment … as most proper astringency” value [2, 16] of the same compound?
Answer: Its value is 3.

Question: And the “N: the number of panelists who hardly felt astringency” value [2, 16]?
Answer: The value was 7.

Question: What about the “A: the number of panelists who felt no difference from sedanenolide-free” value [2, 17] of the same compound?
Answer: Its value is 10.

Question: What about the “B: the number of panelists who felt some reduction in astringency” value [2, 17] of the same compound?
Answer: The value was 0.

Question: What about the “Flavor judgment … as most proper astringency” value [2, 17] of the same compound?
Answer: Its value is 0.

Question: What about the “N: the number of panelists who hardly felt astringency” value [2, 17] of the same compound?
Answer: The value was 0.

Question: And the “A: the number of panelists who felt no difference from sedanenolide-free” value [2, 18]?
Answer: The value was 0.

Question: And the “B: the number of panelists who felt some reduction in astringency” value [2, 18]?
Answer: The value was 2.

Question: What about the “Flavor judgment … as most proper astringency” value [2, 18] of the same compound?
Answer: Its value is 0.

Question: And the “N: the number of panelists who hardly felt astringency” value [2, 18]?
Answer: Its value is 8.
